Measured values taken from article PMC9119131, “Fragile protein folds: sequence and environmental factors affecting the equilibrium of two interconverting, stably folded protein conformations” (Magnetic resonance, 2021).

How the values were obtained:
[1] = target: T1, ARNT PAS-B (aryl hydrocarbon receptor nuclear translocator) (Homo sapiens, UniProt P27540, Y456T); assay: […]/1H HSQC NMR titration ([…]/1H HSQC titration also gave Kd […]); type: binding
T1 construct: PAS-B domain, residues 356–470 (with N-terminal GAMD cloning artifact)

[2] = target: T1, ARNT PAS-B (aryl hydrocarbon receptor nuclear translocator); assay: […]/1H HSQC NMR titration (L391 δ[…] methyl); type: binding

T1 sequence (P27540 356-470 Y456T): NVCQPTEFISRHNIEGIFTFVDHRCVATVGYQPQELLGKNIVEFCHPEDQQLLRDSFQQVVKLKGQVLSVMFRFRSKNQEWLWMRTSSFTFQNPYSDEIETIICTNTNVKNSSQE

Work on FC(F)(F)c1cc(-c2nn[nH]n2)cc(C(F)(F)F)c1 [KG-548, 5-(3,5-bis(trifluoromethyl)phenyl)tetrazole] yielded a Kd [1] of 684 ± 33.1 µM.

Work on Oc1cc(C(F)(F)F)cc(C(F)(F)F)c1 [KG-655, 3,5-bis(trifluoromethyl)phenol] yielded a Kd [2] of 1950 ± 152 µM.
